Here are results for one molecule from patent US8008326B2, “4-benzyledene-piperidin derivatives” (Richter Gedeon Vegyeszeti Gyar Rt., priority 2004, dated 2011).

Like-named read-outs stand apart in the source and are kept apart here.

The subject of series [1] is NMRI mice. The series can be described thus: Mouse formalin test, second phase, oral administration. The series is classed as in vivo. To be noted: 15 min before formalin, licking 20 to 25 min after injection. As for the experimental part:
Injection of diluted formalin into the hind paw of rats or mice is known to elicit a biphasic pain-related behaviour measured as time spent by licking/biting of the injured paw. The second phase is generally defined as pain related events detected in the 15-60 min. time interval after formalin injection, with peak activity at around 30 min. It is known that NMDA receptors are involved in the second phase of response to formalin injection and this behavioural response is sensitive to blockade of NMDA receptors [Dickenson, A. and Besson J.-M. (Editors): Chapter 1, pp. 6-7: Animal models of Analgesia; and Chapter 8, pp. 180-183. Mechanism of Central Hypersensitivity: Excitatory Amino Acid Mechanisms and Their Control—In Pharmacology of Pain. Springer-Verlag (Berlin) 1997.] Therefore, we used the second phase of formalin test to characterize the efficacy of compounds in vivo. Inhibition of the second phase of response is considered to indicate an analgesic effect against chemically-induced persistent pain [Hurker, S., et al.: Formalin Test in Mice, a Useful Technique for Evaluating Mild Analgesics, Journal of Neuroscience Methods, 14 (1985) 69-76.]
Male NMRI […] (20-25 g) were used. Prior to the experiment any solid food was withdrawn for approx. 16 hours but the animals had free access to 20% glucose solution. The animals were allowed 1 hour acclimatization period in a glass cylinder (cc. 15 cm in diameter), then moved to an identical cylinder with a mirror placed behind to facilitate observation. The test substances were suspended in 5% tween-80 (10 ml per kg body weight). and administered orally by gavage 15 min before the formalin injection (20 μl of 1% formalin in 0.9& saline injected subcutaneously into the dorsal surface of the right hindpaw). The time spent by licking and biting of the injected paw was measured from 20 to 25 min. after the formalin injection.

In series [2] the target is T1, recombinant NMDA receptors NR1/NR2A (HEK293 cells) (Homo sapiens, UniProt Q12879).
T1 construct: expressed in transfected cells
T1 sequence (Q12879 23-1464, other chains not shown): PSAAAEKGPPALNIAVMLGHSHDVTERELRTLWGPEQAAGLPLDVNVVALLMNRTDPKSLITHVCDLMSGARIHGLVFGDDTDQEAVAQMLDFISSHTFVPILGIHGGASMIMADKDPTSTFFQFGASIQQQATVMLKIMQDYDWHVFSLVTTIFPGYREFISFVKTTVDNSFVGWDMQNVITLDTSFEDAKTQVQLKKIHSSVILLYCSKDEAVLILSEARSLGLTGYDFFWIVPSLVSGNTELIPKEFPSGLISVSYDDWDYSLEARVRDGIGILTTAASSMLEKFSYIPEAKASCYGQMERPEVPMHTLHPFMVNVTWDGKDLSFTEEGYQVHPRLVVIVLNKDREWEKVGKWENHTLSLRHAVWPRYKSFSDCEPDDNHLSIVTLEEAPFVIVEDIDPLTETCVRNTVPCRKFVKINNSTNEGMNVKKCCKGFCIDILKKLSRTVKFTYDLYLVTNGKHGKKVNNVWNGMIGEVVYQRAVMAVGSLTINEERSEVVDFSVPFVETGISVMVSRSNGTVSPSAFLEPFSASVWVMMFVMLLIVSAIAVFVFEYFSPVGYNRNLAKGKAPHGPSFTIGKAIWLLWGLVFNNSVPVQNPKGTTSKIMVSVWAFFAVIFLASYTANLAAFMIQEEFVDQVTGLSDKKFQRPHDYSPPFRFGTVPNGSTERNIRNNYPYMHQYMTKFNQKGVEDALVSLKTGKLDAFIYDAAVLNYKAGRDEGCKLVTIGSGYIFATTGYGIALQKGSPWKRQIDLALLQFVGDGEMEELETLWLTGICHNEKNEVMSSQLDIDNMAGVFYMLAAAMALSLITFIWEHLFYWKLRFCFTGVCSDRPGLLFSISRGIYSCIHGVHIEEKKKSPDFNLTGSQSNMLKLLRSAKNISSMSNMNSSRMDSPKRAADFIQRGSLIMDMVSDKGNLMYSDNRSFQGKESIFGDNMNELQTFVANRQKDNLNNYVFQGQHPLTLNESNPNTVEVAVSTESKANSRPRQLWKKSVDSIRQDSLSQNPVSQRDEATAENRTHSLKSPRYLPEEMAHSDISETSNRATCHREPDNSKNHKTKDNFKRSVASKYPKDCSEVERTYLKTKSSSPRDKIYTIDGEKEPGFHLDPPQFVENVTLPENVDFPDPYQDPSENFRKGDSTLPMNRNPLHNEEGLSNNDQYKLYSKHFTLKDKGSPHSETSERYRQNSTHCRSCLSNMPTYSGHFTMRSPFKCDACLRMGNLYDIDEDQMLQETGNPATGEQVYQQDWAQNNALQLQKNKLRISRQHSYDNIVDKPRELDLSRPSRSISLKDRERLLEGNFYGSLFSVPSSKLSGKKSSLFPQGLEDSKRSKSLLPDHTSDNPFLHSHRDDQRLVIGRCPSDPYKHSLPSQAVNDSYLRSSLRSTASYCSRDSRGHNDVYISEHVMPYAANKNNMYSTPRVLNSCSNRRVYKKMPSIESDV
The series can be described thus: Inhibition of NMDA evoked cytosolic calcium elevation in HEK293 cells transfected with NR1/NR2A. The series is classed as cell-based. The conditions noted are these: HEK293; read-out: NR1-3/NR2A % inhibition at 10 μM. Here is the method: Expression of Recombinant NMDA Receptors
(1997); Neurochemistry International, 43, 19-29. (2003)]. […] Compounds were tested for their inhibitory action on NMDA evoked cytosolic calcium elevations in fluorescent calcium measurements. Studies were performed 48-72 h after addition of the inducing agent. Ketamine (500 μM) was also present during the induction in order to prevent cytotoxicity.
Dose-response curves and IC50-values were calculated using data derived from at least three independent experiments. Inhibitory potency of a compound at a single concentration point was expressed as percent inhibition of the NMDA response. Sigmoidal concentration-inhibition curves were fit to the data and IC50 values were determined as the concentration that produces half of the maximal inhibition caused by the compound.

The conditions of series [3]: cited from earlier work.

By ED50 is commonly meant the dose at which the effect has come halfway, by size or by number of responders. A higher ED50 goes with a need for a large dose. Consider `C[C@@H](CN1CCC(Cc2ccccc2)CC1)[C@@H](O)c1ccc(O)cc1` [Ro 25.6981, R—(R*,S*)-1-(4-hydroxyphenyl)-2-methyl-3-[4-(phenylmethyl)piperidine-1-yl]-1-propanol], for which the ED50 in series [1] was > 20 mg/kg. For the same molecule, the inhibition at 10 µM in series [2] is 1%. The “effect on locomotor activity” value in series [3] (J. Pharmacol. Exp. Ther. 302 (2002), Behav. Pharmacol. 14 (2003)) is reported as “increase locomotor activity”; in series [3] (other group, Neuropharmacology 38 (1999)), “no such effect was observed”.
